Two compounds from PMC3291806 (2011) can be followed below.

The target in this test is gamma-aminobutyric acid type A (GABAA) receptor α1(L264T)β2γ2L (Homo sapiens, UniProt P14867+P47870, P14867:L291T). Description: cell-based.
Sequence of gamma-aminobutyric acid type A (GABAA) receptor α1(L264T)β2γ2L (P14867 28-456 L291T): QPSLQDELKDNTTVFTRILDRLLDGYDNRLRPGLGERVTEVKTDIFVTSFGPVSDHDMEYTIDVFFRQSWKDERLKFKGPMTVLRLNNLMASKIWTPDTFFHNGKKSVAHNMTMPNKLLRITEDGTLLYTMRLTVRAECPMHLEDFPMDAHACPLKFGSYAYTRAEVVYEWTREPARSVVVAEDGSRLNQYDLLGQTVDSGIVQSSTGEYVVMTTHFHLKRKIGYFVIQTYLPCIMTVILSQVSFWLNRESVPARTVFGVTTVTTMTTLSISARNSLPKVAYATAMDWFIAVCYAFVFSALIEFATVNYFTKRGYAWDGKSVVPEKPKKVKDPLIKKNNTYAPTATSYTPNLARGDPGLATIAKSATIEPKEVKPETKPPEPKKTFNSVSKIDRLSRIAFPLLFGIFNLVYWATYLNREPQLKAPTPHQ
Sequence of gamma-aminobutyric acid type A (GABAA) receptor α1(L264T)β2γ2L (P47870 26-512): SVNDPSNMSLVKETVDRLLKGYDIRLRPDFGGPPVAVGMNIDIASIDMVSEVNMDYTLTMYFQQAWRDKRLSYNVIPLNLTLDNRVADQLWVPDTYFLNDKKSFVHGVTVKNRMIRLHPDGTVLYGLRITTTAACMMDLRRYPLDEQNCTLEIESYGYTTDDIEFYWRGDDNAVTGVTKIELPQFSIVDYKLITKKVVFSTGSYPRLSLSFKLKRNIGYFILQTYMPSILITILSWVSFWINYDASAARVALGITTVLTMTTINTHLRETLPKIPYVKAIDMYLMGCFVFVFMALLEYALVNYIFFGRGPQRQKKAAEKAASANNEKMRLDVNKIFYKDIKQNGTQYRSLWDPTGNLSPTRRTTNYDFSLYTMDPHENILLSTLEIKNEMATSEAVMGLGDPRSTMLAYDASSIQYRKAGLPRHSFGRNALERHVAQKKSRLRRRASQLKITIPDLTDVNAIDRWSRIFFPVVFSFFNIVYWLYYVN
Sequence of gamma-aminobutyric acid type A (GABAA) receptor α1(L264T)β2γ2L (P18507 40-475 partner): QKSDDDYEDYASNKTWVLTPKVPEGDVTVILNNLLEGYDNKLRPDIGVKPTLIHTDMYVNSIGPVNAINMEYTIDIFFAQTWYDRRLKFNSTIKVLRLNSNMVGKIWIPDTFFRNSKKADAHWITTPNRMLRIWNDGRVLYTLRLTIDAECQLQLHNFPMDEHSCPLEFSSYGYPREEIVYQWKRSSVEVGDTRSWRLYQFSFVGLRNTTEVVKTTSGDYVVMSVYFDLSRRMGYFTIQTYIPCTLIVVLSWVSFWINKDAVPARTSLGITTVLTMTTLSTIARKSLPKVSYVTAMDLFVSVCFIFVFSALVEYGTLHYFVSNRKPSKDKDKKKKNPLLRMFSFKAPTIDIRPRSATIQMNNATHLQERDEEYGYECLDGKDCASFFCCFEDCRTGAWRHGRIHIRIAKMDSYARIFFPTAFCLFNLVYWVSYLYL

The EC50 is the midpoint of the concentration-response curve. Read a high EC50 as weaker potency. As for `C[C@H](c1ccccc1)n1cncc1C(=O)OCCC(=O)O` [MOC-ECA], the EC50 came to 3500 ± 630 µM. In turn, `COC(=O)CCOC(=O)c1cncn1[C@H](C)c1ccccc1` [MOC-etomidate, methoxycarbonyl etomidate] gave an EC50 of 10 ± 2.5 µM.
